Patent US20140120083A1, “TREATMENT OF CANCERS USING PI3 KINASE ISOFORM MODULATORS” (INFINITY PHARMACEUTICALS, INC., priority 2012, published 2014)

What was measured:
Type in all cases: biochemical
PI3K γ = molecular target: T1, PI3K γ (Homo sapiens, UniProt P48736); experiment: In vitro IC50, PI3K γ
T1 construct: purchased Sigma
Text: (§1) An exemplary system is PI 3-Kinase (human) HTRF™ Assay from Upstate.

PI3K α = molecular target: T2, PI3K α (Homo sapiens, UniProt P42336); experiment: In vitro IC50, PI3K α
T2 construct: purchased Upstate
T2 sequence (P42336 whole entry): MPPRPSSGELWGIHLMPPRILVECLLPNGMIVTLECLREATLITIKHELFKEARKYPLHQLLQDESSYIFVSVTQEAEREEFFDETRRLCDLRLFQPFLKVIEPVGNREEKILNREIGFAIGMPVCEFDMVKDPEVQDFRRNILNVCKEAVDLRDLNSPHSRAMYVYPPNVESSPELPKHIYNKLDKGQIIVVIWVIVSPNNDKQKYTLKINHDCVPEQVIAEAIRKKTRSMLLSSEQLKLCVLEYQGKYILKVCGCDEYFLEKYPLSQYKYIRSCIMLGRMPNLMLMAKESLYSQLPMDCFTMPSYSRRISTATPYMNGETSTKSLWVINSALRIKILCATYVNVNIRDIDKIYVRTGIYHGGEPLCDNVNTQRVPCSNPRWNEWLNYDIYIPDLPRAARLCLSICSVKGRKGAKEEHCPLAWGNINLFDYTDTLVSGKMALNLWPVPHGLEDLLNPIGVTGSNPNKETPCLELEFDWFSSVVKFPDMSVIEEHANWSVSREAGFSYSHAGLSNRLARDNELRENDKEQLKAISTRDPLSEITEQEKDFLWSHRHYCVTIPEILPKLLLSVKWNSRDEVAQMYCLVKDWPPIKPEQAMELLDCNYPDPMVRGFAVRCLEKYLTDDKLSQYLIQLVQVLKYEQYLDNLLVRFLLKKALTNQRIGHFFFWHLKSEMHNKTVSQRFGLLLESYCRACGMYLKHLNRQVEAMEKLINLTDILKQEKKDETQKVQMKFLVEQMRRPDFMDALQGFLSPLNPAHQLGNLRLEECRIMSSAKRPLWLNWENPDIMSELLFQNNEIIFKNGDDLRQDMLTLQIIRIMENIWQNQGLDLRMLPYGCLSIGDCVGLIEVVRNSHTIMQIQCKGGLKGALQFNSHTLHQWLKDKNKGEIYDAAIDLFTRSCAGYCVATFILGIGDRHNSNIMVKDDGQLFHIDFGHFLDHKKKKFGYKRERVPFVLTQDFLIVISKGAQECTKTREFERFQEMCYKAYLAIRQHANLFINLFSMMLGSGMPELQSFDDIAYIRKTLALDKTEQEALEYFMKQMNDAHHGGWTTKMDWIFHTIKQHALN
T2 sequence (P27986 whole entry partner): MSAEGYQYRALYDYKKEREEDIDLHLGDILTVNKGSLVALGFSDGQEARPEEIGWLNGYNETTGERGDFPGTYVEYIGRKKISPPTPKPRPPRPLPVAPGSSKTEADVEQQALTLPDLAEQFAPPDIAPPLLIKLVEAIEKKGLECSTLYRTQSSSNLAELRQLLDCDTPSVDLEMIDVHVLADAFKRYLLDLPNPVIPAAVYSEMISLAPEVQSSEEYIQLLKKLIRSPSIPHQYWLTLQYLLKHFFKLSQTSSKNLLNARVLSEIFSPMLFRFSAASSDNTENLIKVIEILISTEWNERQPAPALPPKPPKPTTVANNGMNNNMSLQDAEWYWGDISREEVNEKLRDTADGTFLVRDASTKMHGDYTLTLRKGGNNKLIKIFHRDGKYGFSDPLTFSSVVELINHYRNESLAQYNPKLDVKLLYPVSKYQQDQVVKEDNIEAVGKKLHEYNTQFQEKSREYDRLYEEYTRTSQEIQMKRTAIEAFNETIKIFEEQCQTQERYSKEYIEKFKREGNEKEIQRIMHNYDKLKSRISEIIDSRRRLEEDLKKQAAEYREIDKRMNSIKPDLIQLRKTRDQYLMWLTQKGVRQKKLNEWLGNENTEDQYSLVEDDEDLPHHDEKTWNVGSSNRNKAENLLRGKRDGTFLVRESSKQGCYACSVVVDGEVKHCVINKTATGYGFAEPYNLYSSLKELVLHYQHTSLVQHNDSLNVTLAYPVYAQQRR
Text: as §1

PI3K β = PI3K β (Homo sapiens, UniProt P42338); experiment: In vitro IC50, PI3K β
Chain of PI3K β (P42338 whole entry): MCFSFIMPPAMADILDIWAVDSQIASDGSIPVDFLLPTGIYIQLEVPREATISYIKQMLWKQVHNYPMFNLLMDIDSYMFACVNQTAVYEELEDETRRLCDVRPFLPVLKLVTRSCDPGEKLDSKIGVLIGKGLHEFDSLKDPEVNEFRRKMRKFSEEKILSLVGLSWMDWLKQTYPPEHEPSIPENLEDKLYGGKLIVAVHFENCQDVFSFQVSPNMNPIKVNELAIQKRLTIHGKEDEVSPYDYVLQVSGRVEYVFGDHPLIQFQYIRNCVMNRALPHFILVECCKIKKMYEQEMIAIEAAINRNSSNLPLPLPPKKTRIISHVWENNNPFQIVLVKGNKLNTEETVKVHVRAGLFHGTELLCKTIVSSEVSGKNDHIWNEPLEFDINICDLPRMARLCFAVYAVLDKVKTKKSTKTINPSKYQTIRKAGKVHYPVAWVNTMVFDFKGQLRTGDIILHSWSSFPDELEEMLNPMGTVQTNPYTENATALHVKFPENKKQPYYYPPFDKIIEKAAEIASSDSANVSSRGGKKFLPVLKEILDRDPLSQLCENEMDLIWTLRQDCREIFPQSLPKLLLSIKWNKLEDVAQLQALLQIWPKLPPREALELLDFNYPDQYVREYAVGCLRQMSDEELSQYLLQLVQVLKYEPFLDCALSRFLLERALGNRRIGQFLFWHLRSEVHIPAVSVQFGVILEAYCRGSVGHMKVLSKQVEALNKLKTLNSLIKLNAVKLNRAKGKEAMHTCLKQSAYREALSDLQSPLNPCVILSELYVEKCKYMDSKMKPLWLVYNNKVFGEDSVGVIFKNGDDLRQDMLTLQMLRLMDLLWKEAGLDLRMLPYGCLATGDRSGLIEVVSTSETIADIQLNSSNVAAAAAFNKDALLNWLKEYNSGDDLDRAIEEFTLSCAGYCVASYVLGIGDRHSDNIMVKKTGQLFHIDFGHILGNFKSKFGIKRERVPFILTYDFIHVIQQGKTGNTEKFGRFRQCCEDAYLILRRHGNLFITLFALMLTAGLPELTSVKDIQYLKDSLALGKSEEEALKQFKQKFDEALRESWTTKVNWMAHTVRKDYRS
Text: as §1

PI3K δ = PI3K δ (Homo sapiens, UniProt O00329); experiment: In vitro IC50, PI3K δ; set-up: purchased Upstate
Chain of PI3K δ (O00329 whole entry): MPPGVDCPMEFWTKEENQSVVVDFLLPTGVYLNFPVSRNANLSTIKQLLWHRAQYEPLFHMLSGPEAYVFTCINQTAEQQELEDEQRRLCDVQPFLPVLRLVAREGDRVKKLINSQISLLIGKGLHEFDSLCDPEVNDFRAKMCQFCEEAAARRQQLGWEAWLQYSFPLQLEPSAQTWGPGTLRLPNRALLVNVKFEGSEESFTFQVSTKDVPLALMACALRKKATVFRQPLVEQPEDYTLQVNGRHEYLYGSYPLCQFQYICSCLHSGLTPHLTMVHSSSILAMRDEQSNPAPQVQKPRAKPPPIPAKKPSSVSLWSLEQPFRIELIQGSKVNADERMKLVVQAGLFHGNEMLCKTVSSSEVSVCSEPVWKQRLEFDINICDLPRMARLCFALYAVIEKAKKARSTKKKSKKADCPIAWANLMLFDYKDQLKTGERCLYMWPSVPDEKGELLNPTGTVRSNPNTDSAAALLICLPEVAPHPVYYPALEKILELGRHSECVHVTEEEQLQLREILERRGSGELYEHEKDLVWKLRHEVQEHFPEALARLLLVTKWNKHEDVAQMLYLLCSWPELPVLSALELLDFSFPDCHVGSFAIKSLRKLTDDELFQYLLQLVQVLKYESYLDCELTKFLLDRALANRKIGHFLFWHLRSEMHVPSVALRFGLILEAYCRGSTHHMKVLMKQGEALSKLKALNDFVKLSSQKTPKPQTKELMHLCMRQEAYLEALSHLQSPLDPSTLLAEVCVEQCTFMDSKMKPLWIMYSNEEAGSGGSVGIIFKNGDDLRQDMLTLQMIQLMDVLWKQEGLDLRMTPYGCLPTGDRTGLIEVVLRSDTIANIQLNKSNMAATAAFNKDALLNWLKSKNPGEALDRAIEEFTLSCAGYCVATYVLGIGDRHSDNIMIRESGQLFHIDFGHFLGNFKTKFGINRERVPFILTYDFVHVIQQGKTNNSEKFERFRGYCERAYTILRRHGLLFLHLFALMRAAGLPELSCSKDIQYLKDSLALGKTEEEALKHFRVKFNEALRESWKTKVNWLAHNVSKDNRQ
Chain of PI3K δ (P27986 whole entry partner): as the sequence (P27986 whole entry partner) above
Text: as §1

T1 sequence (P48736 whole entry): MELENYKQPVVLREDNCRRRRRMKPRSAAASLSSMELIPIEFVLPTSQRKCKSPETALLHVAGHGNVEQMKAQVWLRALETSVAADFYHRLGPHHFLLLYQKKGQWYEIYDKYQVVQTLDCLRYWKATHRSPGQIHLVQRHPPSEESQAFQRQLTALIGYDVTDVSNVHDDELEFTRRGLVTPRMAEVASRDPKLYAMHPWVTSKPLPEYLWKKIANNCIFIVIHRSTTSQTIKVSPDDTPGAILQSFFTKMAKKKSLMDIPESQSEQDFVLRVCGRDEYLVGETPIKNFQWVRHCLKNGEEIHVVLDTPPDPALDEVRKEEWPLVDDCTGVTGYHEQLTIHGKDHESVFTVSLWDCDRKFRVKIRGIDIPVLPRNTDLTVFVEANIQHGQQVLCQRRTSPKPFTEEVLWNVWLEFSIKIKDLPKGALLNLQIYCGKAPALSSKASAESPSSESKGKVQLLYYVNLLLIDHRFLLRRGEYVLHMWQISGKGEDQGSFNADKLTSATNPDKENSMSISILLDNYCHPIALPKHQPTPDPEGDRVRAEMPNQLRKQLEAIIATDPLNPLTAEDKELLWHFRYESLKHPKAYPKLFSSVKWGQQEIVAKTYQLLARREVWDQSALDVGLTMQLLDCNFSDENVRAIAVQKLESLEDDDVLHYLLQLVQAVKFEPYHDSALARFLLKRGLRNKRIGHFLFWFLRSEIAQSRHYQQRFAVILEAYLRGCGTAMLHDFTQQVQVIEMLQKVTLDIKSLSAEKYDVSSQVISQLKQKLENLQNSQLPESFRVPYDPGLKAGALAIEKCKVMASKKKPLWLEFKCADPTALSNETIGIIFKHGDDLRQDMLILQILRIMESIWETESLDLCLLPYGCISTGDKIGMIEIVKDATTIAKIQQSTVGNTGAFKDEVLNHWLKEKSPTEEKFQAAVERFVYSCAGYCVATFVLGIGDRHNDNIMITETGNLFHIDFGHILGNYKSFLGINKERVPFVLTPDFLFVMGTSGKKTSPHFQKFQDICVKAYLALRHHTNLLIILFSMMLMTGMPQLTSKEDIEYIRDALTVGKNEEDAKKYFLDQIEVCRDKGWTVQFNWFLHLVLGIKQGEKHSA

SMILES	IC50 (PI3K γ) [µM]	IC50 (PI3K α) [µM]	IC50 (PI3K β) [µM]	IC50 (PI3K δ) [µM]
Cc1cccc2cc([C@H](C)Nc3ncnc4ccccc34)n(-c3ccccc3)c(=O)c12 [Compound 238]	< 1	> 10	> 10	< 0.1
Cc1cccc2cc(Cn3nc(-c4cn[nH]c4)c4c(N)ncnc43)n(-c3ccccc3Cl)c(=O)c12 [Compound 188]	< 1	> 10	> 10	< 0.1
Cc1cccc2cc(C(C)Nc3ncnc4[nH]cnc34)n(C(C)C)c(=O)c12 (stereo not drawn) [Compound 209]	< 1	< 10	< 10	< 0.1
Cc1cccc2cc([C@H](C)Nc3cc(N)nc(N)n3)n(-c3ccccc3)c(=O)c12 [Compound 286]	< 1	> 10	> 10	< 1
COc1cc(-c2nn(Cc3cc4cccc(C)c4c(=O)n3-c3ccccc3F)c3ncnc(N)c23)ccc1Cl [Compound 22]	< 1	> 10	> 10	< 10
Cc1ccccc1-n1c(Cn2nc(/C=C/C(=O)N3CCOCC3)c3c(N)ncnc32)cc2cccc(C)c2c1=O [Compound 192]	> 10	> 10	> 10	< 1
Cc1ccccc1-n1c(Cn2nc(I)c3c(N)ncnc32)cc2cccc(F)c2c1=O [Compound 42]	< 10	> 10	> 10	< 1
Cc1ccccc1-n1c(Cn2nc(-c3ccc(F)cc3)c3c(N)ncnc32)cc2cccc(C)c2c1=O [Compound 27]	< 1	> 10	> 10	< 10
Cc1cccc2cc(Cn3nc(-c4cccc(F)c4)c4c(N)ncnc43)n(-c3ccccc3F)c(=O)c12 [Compound 40]	< 10	> 10	> 10	< 10
Cc1cccc2cc([C@H](C)Nc3ncnc4[nH]cc(Br)c34)n(C3CC3)c(=O)c12 [Compound 272]	< 0.1	< 1	< 0.1	< 0.1
Cc1cccc2cc(Cn3nc(C#C[C@@H](C)O)c4c(N)ncnc43)n(C3CCCC3)c(=O)c12 [Compound 65]	< 10	> 10	< 10	< 0.1
Cc1cccc2cc([C@H](C)Nc3cc(N)nc(Cl)n3)n(-c3ccccc3)c(=O)c12 [Compound 285]	< 10	> 10	> 10	< 1
CCC(Nc1ncnc2[nH]cnc12)c1cc2cccc(C)c2c(=O)n1C1CCN(C)CC1 (stereo not drawn) [Compound 228]	> 10	> 10	< 10	< 1
Cc1cccc2cc([C@H](C)Nc3ncnc4[nH]nc(C(N)=O)c34)n(-c3ccccc3)c(=O)c12 [Compound 256]	< 0.1	< 10	< 0.1	< 0.1
CCC(Nc1ncnc2[nH]cnc12)c1cc2cccc(C)c2c(=O)n1-c1cc(F)cc(F)c1 (stereo not drawn) [Compound 224]	< 10	> 10	> 10	< 0.1
Cc1cccc2cc([C@H](C)Nc3nc(N)ncc3C(N)=O)n(C3CC3)c(=O)c12 [Compound 282]	> 10	> 10	> 10	> 10
Cc1cccc2cc(Cn3nc(/C=C4/CCNC4=O)c4c(N)ncnc43)n(-c3ccccc3F)c(=O)c12 [Compound 172]	> 10	> 10	> 10	< 10
Cc1ccccc1-n1c(Cn2nc(C#CCO)c3c(N)ncnc32)cc2cccc(C)c2c1=O [Compound 11]	< 1	> 10	> 10	< 0.1
Cc1cccnc1-n1c(Cn2nc(C#C[C@@H](C)O)c3c(N)ncnc32)cc2cccc(C)c2c1=O [Compound 69]	> 10	> 10	> 10	< 1
Cc1ccccc1-n1c(Cn2nc(-c3cccc(F)c3)c3c(N)ncnc32)cc2cccc(C)c2c1=O [Compound 41]	< 1	> 10	> 10	< 10
Cc1ccccc1-n1c(Cn2nc(-c3ccn[nH]3)c3c(N)ncnc32)cc2cccc(C)c2c1=O [Compound 182]	< 0.1	> 10	> 10	< 1
Cc1ccccc1-n1c(Cn2nc(-c3ccc(O)c(Cl)c3)c3c(N)ncnc32)cc2cccc(C)c2c1=O [Compound 25]	< 0.1	> 10	< 10	< 0.1
Cc1cccc2cc([C@H](C)Nc3ncnc4[nH]cnc34)n(-c3ccc(F)cc3)c(=O)c12 [Compound 260]	< 0.1	< 1	< 0.1	< 0.1
Cc1cccc2cc(Cn3nc(Cl)c4c(N)ncnc43)n(-c3ccccc3F)c(=O)c12 [Compound 34]	< 10	> 10	> 10	< 1
